Assay [1] addresses T1, WT ZAC (Homo sapiens, UniProt Q401N2, A152T).
T1 construct: expressed in transfected cells; host or cells: Xenopus oocytes injected with cRNA (pUNIV vector)
T1 sequence (Q401N2 26-412 A152T): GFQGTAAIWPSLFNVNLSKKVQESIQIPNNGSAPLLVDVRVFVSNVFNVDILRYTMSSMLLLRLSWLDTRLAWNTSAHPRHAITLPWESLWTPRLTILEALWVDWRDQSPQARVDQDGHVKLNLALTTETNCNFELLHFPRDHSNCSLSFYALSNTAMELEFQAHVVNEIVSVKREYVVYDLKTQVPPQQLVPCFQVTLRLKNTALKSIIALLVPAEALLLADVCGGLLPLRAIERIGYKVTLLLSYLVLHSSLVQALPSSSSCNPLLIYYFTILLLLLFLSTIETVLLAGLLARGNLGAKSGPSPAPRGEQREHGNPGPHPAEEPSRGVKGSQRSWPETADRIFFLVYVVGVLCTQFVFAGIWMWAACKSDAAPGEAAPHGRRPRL
Description: TEVC in Xenopus oocytes expressing WT ZAC. The format is cell-based. The following applies: PTX at concentrations up to 100 μM; Zn^2+ 1 mM. The protocol:
(§1) The recordings were performed at room temperature.
(§2) Analysis of the data from the TEVC recordings were performed using Clampfit software version 10.5 (Molecular Devices, Crawley, UK) and GraphPad Prism version 7.0c (GraphPad Software, La Jolla, CA). Unless otherwise stated, the inward currents induced by agonists in oocytes were normalized to the maximal response elicited by a specific agonist (agonist Imax) on each oocyte. Concentration-response and concentration-inhibition curves were fitted in GraphPad Prism by nonlinear regression using the equation for sigmoidal dose-response with variable slope. Each data point represents the mean ± S.E.M. value of recordings performed on at least five oocytes in total from at least two different batches. For the data where statistical analysis was performed, a one-way ANOVA was used. The null hypothesis was rejected at P < 0.05, and the differences between the means were analyzed by Tukey’s multiple comparisons test.

In assay [2] the target is T2, WT hα1 GlyR (Homo sapiens, UniProt P23415).
T2 construct: expressed in transfected cells; host or cells: Xenopus oocytes injected with cRNA (pUNIV vector)
T2 sequence (P23415 29-457): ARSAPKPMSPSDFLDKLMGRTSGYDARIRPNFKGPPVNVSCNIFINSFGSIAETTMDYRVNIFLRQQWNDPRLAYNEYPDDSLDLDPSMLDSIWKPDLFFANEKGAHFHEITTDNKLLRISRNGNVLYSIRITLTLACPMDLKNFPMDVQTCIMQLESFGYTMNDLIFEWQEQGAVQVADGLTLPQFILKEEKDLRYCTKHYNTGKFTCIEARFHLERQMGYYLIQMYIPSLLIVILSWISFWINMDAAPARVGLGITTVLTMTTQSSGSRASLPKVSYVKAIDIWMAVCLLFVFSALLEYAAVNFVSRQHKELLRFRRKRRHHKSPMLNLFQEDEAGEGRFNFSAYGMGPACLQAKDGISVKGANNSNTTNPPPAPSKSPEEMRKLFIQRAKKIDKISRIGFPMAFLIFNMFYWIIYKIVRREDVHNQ
The format is cell-based.
From the text: (§3) The construction of the ZAC-pUNIV plasmid (encoding for the human WT ZAC that contains a Thr in position 128) has been described previously. The m5-HT3A and hα1 GlyR cDNAs were subcloned from their original vectors into pUNIV (Addgene, Watertown, MA) using NheI and EcoRI as restriction enzymes. […] The C-terminus modifications in these four chimeras were introduced in their cDNAs in the same way. Point mutations were introduced in cDNAs by use of the QuikChange mutagenesis kit (Stratagene, San Diego, CA). The validity and absence of unwanted mutations in the constructed cDNAs was verified by DNA sequencing (Macrogen Europe, Amsterdam, The Netherlands).
All cDNAs used for cRNA synthesis were inserted in the pUNIV vector. The cDNAs were linearized and subsequently transcribed and capped using the mMessage mMachine T7 RNA transcription kit (Ambion, Waltham, MA). […] Oocytes were incubated in a sterile modified Barth’s solution [88 mM NaCl, 1 mM KCl, 15 mM HEPES (pH 7.5), 2.4 mM NaHCO3, 0.41 mM CaCl2, 0.82 mM MgSO4, 0.3 mM Ca(NO3)2, 100 U/ml penicillin and 100 μg/ml streptomycin] at 16–18 °C. Based on experience gained with WT ZAC in a recent study, all TEVC recordings were performed two days after cRNA injection.
On the day of the TEVC recording, all compound dilutions were prepared in a saline solution [115 mM NaCl, 2.5 mM KCl, 10 mM MOPS (pH 7.5), 1.8 mM CaCl2, 0.1 mM MgCl2], and pH was adjusted to 7.5 (if needed). Oocytes were placed in a recording chamber continuously perfused with this saline solution, and the compounds were applied in the perfusate. Both voltage and current electrodes were agar-plugged with 3 M KCl with a resistance of 0.2–2.0 MΩ. Oocytes were voltage-clamped at −50 mV (except in the studies of the chimeras and their parent receptors where they were clamped at −60 mV, section 3.1), by a Gene Clamp 500B amplifier, and current signals were digitized by a Digidata 1322A (both from Axon Instruments, Union City, CA). Currents were recorded using pCLAMP 10 (Molecular Devices, Sunnyvale, CA). The recordings were performed at room temperature.
In all recordings, compounds or compound combinations were applied in the bath until the peak current decayed to a steady state (up to 30 s). […] The antagonist properties of compounds were determined by pre-application of the compound to the perfusate for 30 s followed by co-application of the compound and the agonist. In all recordings, washes of 1–5 min were executed between the ligand applications, the length of the washes depending on the agonist concentrations used and on the return to baseline current amplitude.
as §2, with “For the data where statistical analysis was performed, a one-way ANOVA was used.” left out

Assay [3] has as its system ZAC/hα1-Gly. In words: TEVC in oocytes expressing ZAC/hα1-Gly chimera. It counts as cell-based, human. The protocol:
as §1, §2
(§4) Initially, we constructed four chimeric subunits fusing the ZAC ECD or TMD-ICD with the complementary domains from either the m5-HT3A or the hα1 GlyR subunit: ZAC/m5-HT3A, m5-HT3A/ZAC, ZAC/hα1-Gly and hα1-Gly/ZAC (Fig. 1A). […] (Fig. 1A).

The test system of assay [4] is hα1-Gly/ZAC. Description: TEVC in oocytes expressing hα1-Gly/ZAC chimera. It counts as cell-based, human. The following applies: 1 mM Gly; n = 5. The method, then: as §1, §2, §4
In assay [5] the test system is hα1-Gly/ZAC-II. Particulars: Gly 1 mM; data not shown.
From the text: as §3
All cDNAs used for cRNA synthesis were inserted in the pUNIV vector. […]
On the day of the TEVC recording, all compound dilutions were prepared in a saline solution [115 mM NaCl, 2.5 mM KCl, 10 mM MOPS (pH 7.5), 1.8 mM CaCl2, 0.1 mM MgCl2], and pH was adjusted to 7.5 (if needed). […] Currents were recorded using pCLAMP 10 (Molecular Devices, Sunnyvale, CA). […]
In all recordings, compounds or compound combinations were applied in the bath until the peak current decayed to a steady state (up to 30 s). […] The antagonist properties of compounds were determined by pre-application of the compound to the perfusate for 30 s followed by co-application of the compound and the agonist. […]

pIC50: −log10 of the molar value. Some results are limits rather than exact numbers.

As to picrotoxin [PTX], in assay [1], the “inhibition of Zn^2+ EC90-mediated signalling” value is on record as “did not inhibit”. Moreover, the entries for the “current during 30-s preincubation of antagonist” value in assay [2] (PTX preincubation) and in assay [3] (PTX preincubation) were “no such outward currents” and “substantial outward currents”, respectively. The pIC50 (as a rule, the negative decadic logarithm of the IC50, by convention in mol/L) was more than 6.00 in assay [2] (inhibition of Gly EC90 (100 μM)-elicited responses, read-out: estimated IC50) and less than 6.00 in assay [3] (inhibition of Zn^2+ EC90 (10 μM)-induced currents, read-out: estimated IC50).

Turning to `NCC(=O)O` [Gly, glycine], in assay [2], the “Imax (current amplitude evoked by saturating agonist)” value is 2.02 ± 0.24 μA, the Δtpeak-to-plateau is 52 ± 5.9 s and the Δtstart-to-peak is 2.7 ± 0.3 s. Besides, the “I1 mM Gly ± S.E.M.” value in assay [4] is −0.0062 ± 0.0022 μA. Further, in assay [5], the agonist-evoked current result is recorded as “did not induce significant responses”.

(Values after article PMC11359809, “Probing the molecular basis for signal transduction through the Zinc-Activated Channel (ZAC)” (Biochemical pharmacology, 2021).)
